Calls of active or inactive are those of the source. No cut-off for these calls is given here.
Legend:
MDA-MB-231 [1] = assay: Inhibition of human MDA-MB-231 cell migration measured after 24 hrs by phase contrast microscopy based transwell assay; assay type: functional
MDA-MB-231 [2] = assay: Down regulation of JNK expression in human MDA-MB-231 cells at 20 uM measured after 24 hrs by immunofluorescence assay; assay type: functional, cell-based
MDA-MB-231 [3] = assay: Induction of apoptosis in human MDA-MB-231 cells assessed as necrotic cells at 10 uM measured after 24 hrs by Annexin V-FITC/propidium iodide staining based flow cytometry (reference value: 0.16%); assay type: functional
MDA-MB-231 [4] = assay: Induction of apoptosis in human MDA-MB-231 cells assessed as viable cells at 20 uM measured after 24 hrs by Annexin V-FITC/propidium iodide staining based flow cytometry (reference value: 98.46%); assay type: functional; conditions: read-out: Activity
[5] = Effect on GARS gene expression in human MDA-MB-231 cells by Trizol reagent based RNA sequencing analysis relative to control; assay type: functional
Homo sapiens = species on record: Homo sapiens; assay: Selectivity ratio of IC50 for inhibition of PAK3 (unknown origin) to IC50 for inhibition of PAK1 (unknown origin)
[6] = Effect on ASNS gene expression in human MDA-MB-231 cells by Trizol reagent based RNA sequencing analysis relative to control; assay type: functional
[7] = Effect on HYOU1 gene expression in human MDA-MB-231 cells by Trizol reagent based RNA sequencing analysis relative to control; assay type: functional
MDA-MB-231 [8] = assay: Induction of apoptosis in human MDA-MB-231 cells assessed as late apoptotic cells at 10 uM measured after 24 hrs by Annexin V-FITC/propidium iodide staining based flow cytometry (reference value: 0.57%); assay type: functional
MDA-MB-231 [9] = assay: Inhibition of PI3K/AKT/mTOR signaling in human MDA-MB-231 cells assessed as reduction in AKT phosphorylation at 10 to 40 uM after 24 hrs by Western blot analysis; assay type: cell-based; conditions: dose 10-40 µM
[10] = molecular target: Mitogen-activated protein kinase 8/9 (Homo sapiens) (UniProt P45983+P45984); assay: Inhibition of JNK1/2 in human MDA-MB-231 cells assessed as reduction in c-JUN phosphorylation at Ser63 residues at 10 to 40 uM after 24 hrs by Western blot analysis; assay type: cell-based; conditions: dose 10-40 µM
MDA-MB-231 [11] = assay: Upregulation of PERK expression in human MDA-MB-231 cells at 10 to 40 uM measured after 24 hrs by Western blot analysis; assay type: functional, cell-based; conditions: dose 10-40 µM
MDA-MB-231 [12] = assay: Induction of apoptosis in human MDA-MB-231 cells assessed as increase in PARP cleavage at 10 to 40 uM measured after 24 hrs by Western blot analysis; assay type: functional, cell-based; conditions: dose 10-40 µM
[13] = Effect on PPP1R15A gene expression in human MDA-MB-231 cells by Trizol reagent based RNA sequencing analysis relative to control; assay type: functional
[14] = Effect on CSTA gene expression in human MDA-MB-231 cells by Trizol reagent based RNA sequencing analysis relative to control; assay type: functional
MDA-MB-231 [15] = assay: Inhibition of PI3K/AKT/mTOR signaling in human MDA-MB-231 cells assessed as reduction in mTOR phosphorylation at 10 to 40 uM after 24 hrs by Western blot analysis; assay type: cell-based; conditions: dose 10-40 µM
[16] = molecular target: Serine/threonine-protein kinase PAK 3 (Homo sapiens, UniProt O75914); assay: Inhibition of PAK3 (unknown origin) […] measured after 40 mins by ADP-glo kinase assay
MDA-MB-231 [17] = assay: Up regulation of MMP-2 expression in human MDA-MB-231 cells at 10 to 40 uM measured after 24 hrs by Western blot analysis; assay type: functional, cell-based; conditions: dose 10-40 µM
MDA-MB-231 [18] = assay: Induction of apoptosis in human MDA-MB-231 cells assessed as upregulation of Bax expression at 10 to 40 uM measured after 24 hrs by Western blot analysis; assay type: functional, cell-based; conditions: dose 10-40 µM
[19] = molecular target: T1, Serine/threonine-protein kinase PAK 1 (Homo sapiens, UniProt Q13153); assay: Inhibition of PAK1 (unknown origin) […] measured after 40 mins by ADP-glo kinase assay
MDA-MB-231 [20] = assay: Induction of apoptosis in human MDA-MB-231 cells assessed as late apoptotic cells at 40 uM measured after 24 hrs by Annexin V-FITC/propidium iodide staining based flow cytometry (reference value: 0.57%); assay type: functional
MDA-MB-231 [21] = assay: Induction of apoptosis in human MDA-MB-231 cells assessed as viable cells at 10 uM measured after 24 hrs by Annexin V-FITC/propidium iodide staining based flow cytometry (reference value: 98.46%); assay type: functional; conditions: read-out: Activity
MDA-MB-231 [22] = assay: Induction of apoptosis in human MDA-MB-231 cells assessed as increase in DNA fragmentation at 10 to 40 uM measured after 24 hrs by Hoechst 33258 staining based assay; assay type: functional, cell-based; conditions: dose 10-40 µM
[23] = Effect on CHAC1 gene expression in human MDA-MB-231 cells by Trizol reagent based RNA sequencing analysis relative to control; assay type: functional
MDA-MB-231 [24] = assay: Induction of apoptosis in human MDA-MB-231 cells assessed as early apoptotic cells at 20 uM measured after 24 hrs by Annexin V-FITC/propidium iodide staining based flow cytometry (reference value: 0.81%); assay type: functional
[25] = Effect on MIA2 gene expression in human MDA-MB-231 cells by Trizol reagent based RNA sequencing analysis relative to control; assay type: functional
[26] = Effect on DDIT4 gene expression in human MDA-MB-231 cells by Trizol reagent based RNA sequencing analysis relative to control; assay type: functional
[27] = Effect on CDHR4 gene expression in human MDA-MB-231 cells by Trizol reagent based RNA sequencing analysis relative to control; assay type: functional; conditions: dose 10-40 µM; time 24 hrs
[28] = molecular target: T1, Serine/threonine-protein kinase PAK 1; assay: Inhibition of PAK1 phosphorylation at Ser199 residues in human MDA-MB-231 cells at 10 to 40 uM measured after 24 hrs by Western blot analysis; assay type: cell-based; conditions: dose 10-40 µM
MDA-MB-231 [29] = assay: Upregulation of phosphorylated PERK Thr980 expression in human MDA-MB-231 cells at 10 to 40 uM measured after 24 hrs by Western blot analysis; assay type: functional, cell-based; conditions: dose 10-40 µM
[30] = Effect on HERPUD1 gene expression in human MDA-MB-231 cells by Trizol reagent based RNA sequencing analysis relative to control; assay type: functional
MDA-MB-231 [31] = assay: Up regulation of FOXO3a expression in human MDA-MB-231 cells at 10 to 40 uM measured after 24 hrs by Western blot analysis; assay type: functional, cell-based; conditions: dose 10-40 µM
MDA-MB-231 [32] = assay: Induction of apoptosis in human MDA-MB-231 cells assessed as viable cells at 40 uM measured after 24 hrs by Annexin V-FITC/propidium iodide staining based flow cytometry (reference value: 98.46%); assay type: functional; conditions: read-out: Activity
MDA-MB-231 [33] = assay: Induction of apoptosis in human MDA-MB-231 cells assessed as early apoptotic cells at 40 uM measured after 24 hrs by Annexin V-FITC/propidium iodide staining based flow cytometry (reference value: 0.81%); assay type: functional
MDA-MB-231 [34] = assay: Induction of apoptosis in human MDA-MB-231 cells assessed as increase in early apoptosis measured after 24 hrs by Annexin V-FITC/propidium iodide staining based flow cytometry; assay type: functional, cell-based
MDA-MB-231 [35] = assay: Induction of apoptosis in human MDA-MB-231 cells assessed as down regulation of Bcl-2 expression at 10 to 40 uM measured after 24 hrs by Western blot analysis; assay type: functional, cell-based; conditions: dose 10-40 µM

T1 sequence (Q13153 whole entry): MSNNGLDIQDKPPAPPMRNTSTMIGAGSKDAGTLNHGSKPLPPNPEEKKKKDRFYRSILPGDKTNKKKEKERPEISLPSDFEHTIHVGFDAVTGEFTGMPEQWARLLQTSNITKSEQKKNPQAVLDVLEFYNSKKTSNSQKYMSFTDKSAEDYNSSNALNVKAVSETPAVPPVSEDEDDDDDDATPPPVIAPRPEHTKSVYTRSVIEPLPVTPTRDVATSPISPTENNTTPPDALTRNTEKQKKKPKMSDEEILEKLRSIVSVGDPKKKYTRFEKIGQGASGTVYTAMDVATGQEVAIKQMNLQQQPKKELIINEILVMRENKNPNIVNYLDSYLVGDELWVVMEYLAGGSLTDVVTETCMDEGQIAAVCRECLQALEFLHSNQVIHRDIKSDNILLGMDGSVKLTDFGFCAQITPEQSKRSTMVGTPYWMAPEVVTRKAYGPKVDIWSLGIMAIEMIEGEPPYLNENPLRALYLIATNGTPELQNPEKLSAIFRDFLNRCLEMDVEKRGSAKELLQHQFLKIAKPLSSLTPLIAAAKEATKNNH
Sequence of Serine/threonine-protein kinase PAK 3 (O75914 whole entry): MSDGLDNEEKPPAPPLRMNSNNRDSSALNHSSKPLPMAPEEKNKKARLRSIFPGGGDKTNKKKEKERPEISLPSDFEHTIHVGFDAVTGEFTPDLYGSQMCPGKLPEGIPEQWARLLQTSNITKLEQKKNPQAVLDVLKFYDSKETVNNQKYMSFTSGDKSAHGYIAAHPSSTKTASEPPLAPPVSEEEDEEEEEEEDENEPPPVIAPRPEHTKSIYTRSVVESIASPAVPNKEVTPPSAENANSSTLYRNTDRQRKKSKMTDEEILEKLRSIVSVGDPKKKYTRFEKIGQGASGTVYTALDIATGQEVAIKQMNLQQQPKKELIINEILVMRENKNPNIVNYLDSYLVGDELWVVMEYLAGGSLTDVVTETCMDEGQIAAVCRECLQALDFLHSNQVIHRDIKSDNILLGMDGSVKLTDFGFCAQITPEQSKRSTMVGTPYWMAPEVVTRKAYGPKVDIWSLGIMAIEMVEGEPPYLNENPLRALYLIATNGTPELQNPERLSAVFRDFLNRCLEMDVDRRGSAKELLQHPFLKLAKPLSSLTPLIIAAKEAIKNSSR
Sequence of Mitogen-activated protein kinase 8/9 (Homo sapiens) (P45983 whole entry, looked up): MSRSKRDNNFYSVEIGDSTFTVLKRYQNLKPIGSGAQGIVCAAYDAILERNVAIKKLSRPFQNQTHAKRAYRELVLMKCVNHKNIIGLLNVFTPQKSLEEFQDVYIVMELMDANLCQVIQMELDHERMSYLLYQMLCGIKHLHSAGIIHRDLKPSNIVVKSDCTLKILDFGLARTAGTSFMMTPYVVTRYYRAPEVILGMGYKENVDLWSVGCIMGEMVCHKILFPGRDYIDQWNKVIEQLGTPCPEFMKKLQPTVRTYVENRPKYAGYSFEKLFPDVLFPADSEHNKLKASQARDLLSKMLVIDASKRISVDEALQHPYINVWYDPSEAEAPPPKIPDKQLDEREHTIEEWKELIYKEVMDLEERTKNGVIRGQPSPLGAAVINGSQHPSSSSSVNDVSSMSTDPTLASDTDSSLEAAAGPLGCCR
Sequence of Mitogen-activated protein kinase 8/9 (Homo sapiens) (P45984 whole entry, looked up): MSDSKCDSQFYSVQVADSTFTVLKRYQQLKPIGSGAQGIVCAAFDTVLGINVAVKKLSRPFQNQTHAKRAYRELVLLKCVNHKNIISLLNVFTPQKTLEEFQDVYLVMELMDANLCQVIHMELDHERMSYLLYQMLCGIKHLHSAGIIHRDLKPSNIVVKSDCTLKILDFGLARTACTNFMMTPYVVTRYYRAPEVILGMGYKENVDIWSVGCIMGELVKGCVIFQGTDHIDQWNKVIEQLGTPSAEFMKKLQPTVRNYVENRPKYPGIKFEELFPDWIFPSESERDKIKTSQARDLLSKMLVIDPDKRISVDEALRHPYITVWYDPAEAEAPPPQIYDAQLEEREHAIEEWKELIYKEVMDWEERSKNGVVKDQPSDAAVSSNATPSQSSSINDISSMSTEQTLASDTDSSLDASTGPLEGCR

Ratio IC50 (Homo sapiens): 5
inhibition [10]: Active
IC50 [16]: 1370 nM
IC50 [19]: 170 nM
inhibition [28]: Active
Structure (SMILES): O=C(Nc1cc(C(F)(F)F)cc(C(F)(F)F)c1)NC1CCN(c2ncnc3[nH]ncc23)CC1
inhibition (MDA-MB-231 [1]): Active
Activity (MDA-MB-231 [2]): inactive
Activity (MDA-MB-231 [3]): 1.64%
viability at 20 µM (MDA-MB-231 [4]): 77.3%
fold change (FC) [5]: >2
fold change (FC) [6]: >2
fold change (FC) [7]: >2
Activity (MDA-MB-231 [8]): 3.22%
inhibition (MDA-MB-231 [9]): Active
Activity (MDA-MB-231 [11]): Active
Activity (MDA-MB-231 [12]): Active
fold change (FC) [13]: >2
fold change (FC) [14]: >2
inhibition (MDA-MB-231 [15]): Active
Activity (MDA-MB-231 [17]): Active
Activity (MDA-MB-231 [18]): Active
Activity (MDA-MB-231 [20]): 12.06%
viability at 10 µM (MDA-MB-231 [21]): 88%
Activity (MDA-MB-231 [22]): Active
fold change (FC) [23]: >2
Activity (MDA-MB-231 [24]): 15.2%
fold change (FC) [25]: >2
fold change (FC) [26]: >2
fold change (FC) [27]: >2
Activity (MDA-MB-231 [29]): Active
fold change (FC) [30]: >2
Activity (MDA-MB-231 [31]): Active
viability at 40 µM (MDA-MB-231 [32]): 72.2%
Activity (MDA-MB-231 [33]): 14.79%
Activity (MDA-MB-231 [34]): Dose-dependent effect
Activity (MDA-MB-231 [35]): Active
